Assay results taken from patent US4302448A, “Secretin preparations with intensified and protracted action, process for their manufacture, their use as well as dihydroxybenzoyl-L-tyrosine” (Hoechst Aktiengesellschaft, priority 1979, dated 1981).
Where a SMILES comes first, the peptide text is derived from it. The star is where a group is joined. Cbz = O=C(OCc1ccccc1)*

Test system: Pancreatic juice secretion of the rat
Assay: Pancreatic juice secretion of the rat after subcutaneous administration of secretin with depot bodies
Type: in vivo
Conditions: rat, subcutaneous, 5 CU/kg secretin + 10 mg depot body/animal; for Δ% vs. control (percentage by which the pancreatic secretion is above the basal secretion after 5 hours): control=100%, measure of depot effect; for Rel. Intensity of effect over 5 hours (total pancreatic juice secretion over 5 hours as compared with control): control (0.9% of NaCl)=1
Protocol: Secretin preparations for subcutaneous application which contained the depot bodies specified in the following Table were tested in animal experiments. In the experimental procedure chosen, 5 to 8 male rats weighing 300 to 500 g each are administered subcutaneously 5 CU/kg of secretin (CU means clinical unit) and 10 mg of the depot body to be tested each in aqueous solution or suspension.
The animals remain without food for 18 hours prior to the test, but they are given water ad libitum. Under urethane anaesthesia (5 ml/kg i.m. of 25% urethane) the abdomen is opened by median section after tracheotomy, and the pylorus is ligated. The ductus choledochus is tied off in its proximal part near the porta hepatis, and the bile is led into the duodenum via a polyethylene tube of a diameter of […]. A cannula or catheter is inserted into the distal part of the bile duct, into which the numerous pancreatic ducts open, immediately before it opens into the duodenum, and the volume of the secretion running off is measured in 60 minute intervals. Following a preliminary run of 60 minutes the preparations are administered.
L means the compound known from literature and characterized by the melting point, optionally UV, IR or NMR. A to C relate to the preparation according to Example 1, process A to C. These compounds were characterized by ultimate analysis. The third column indicates the percentage by which the pancreatic secretion is above the basal secretion after 5 hours (calculated on the control=100%). This value is a measure for the depot effect of the depot body tested. Column 4 indicates the intensification of the secretin effect, with the total pancreatic juice secretion having been given over 5 hours as compared with the control (0.9% of NaCl)=1.

## 2,8-Dihydroxy-3-naphthoyl-diethanolamine
  Δ% vs. control (percentage by which the pancreatic secretion is above the basal secretion after 5 hours): 77%
  Rel. Intensity of effect over 5 hours (total pancreatic juice secretion over 5 hours as compared with control): 9.1

## 3,5-Dihydroxyphenylcarbonyl-ethylphenyl-3,5-dimethyl phosphate
  Δ% vs. control (percentage by which the pancreatic secretion is above the basal secretion after 5 hours): 62%
  Rel. Intensity of effect over 5 hours (total pancreatic juice secretion over 5 hours as compared with control): 3.4

## O=C(c1ccc2ccccc2c1O)N(CCO)CCO [1-Hydroxy-2-naphthoic acid-diethanolamide]
  Δ% vs. control (percentage by which the pancreatic secretion is above the basal secretion after 5 hours): 79%
  Rel. Intensity of effect over 5 hours (total pancreatic juice secretion over 5 hours as compared with control): 8.1

## O=C(NCCO)c1ccc2ccccc2c1O [1-Hydroxy-2-naphthoic acid-ethanolamide]
  Δ% vs. control (percentage by which the pancreatic secretion is above the basal secretion after 5 hours): 74%
  Rel. Intensity of effect over 5 hours (total pancreatic juice secretion over 5 hours as compared with control): 8.0

## O=C(c1ccc(O)cc1O)c1ccc(O)cc1O [2,2'-4,4'-Tetrahydroxybenzophenone]
  Δ% vs. control (percentage by which the pancreatic secretion is above the basal secretion after 5 hours): 58%
  Rel. Intensity of effect over 5 hours (total pancreatic juice secretion over 5 hours as compared with control): 4.8

## O=C(c1ccccc1)c1ccc(O)c(O)c1O [2,3,4-Trihydroxy-benzophenone]
  Δ% vs. control (percentage by which the pancreatic secretion is above the basal secretion after 5 hours): 109%
  Rel. Intensity of effect over 5 hours (total pancreatic juice secretion over 5 hours as compared with control): 9.1

## CC(=O)c1ccc(O)cc1O [2,4-Dihydroxy-acetophenone]
  Δ% vs. control (percentage by which the pancreatic secretion is above the basal secretion after 5 hours): 70%
  Rel. Intensity of effect over 5 hours (total pancreatic juice secretion over 5 hours as compared with control): 6.1

## O=C(c1ccccc1)c1ccc(O)cc1O [2,4-Dihydroxy-benzophenone]
  Δ% vs. control (percentage by which the pancreatic secretion is above the basal secretion after 5 hours): 163%
  Rel. Intensity of effect over 5 hours (total pancreatic juice secretion over 5 hours as compared with control): 9.1

## O=C(NCc1ccccc1)c1ccc(O)cc1O [2,4-Dihydroxybenzoic acid-benzylamide]
  Δ% vs. control (percentage by which the pancreatic secretion is above the basal secretion after 5 hours): 64%
  Rel. Intensity of effect over 5 hours (total pancreatic juice secretion over 5 hours as compared with control): 6.8

## O=C(O)c1ccc(O)cc1O [2,4-Dihydroxybenzoic acid]
  Δ% vs. control (percentage by which the pancreatic secretion is above the basal secretion after 5 hours): 28%
  Rel. Intensity of effect over 5 hours (total pancreatic juice secretion over 5 hours as compared with control): 7.1

## O=C(N[C@@H](Cc1ccc(O)cc1)C(=O)N(CCO)CCO)c1ccc(O)cc1O [2,4-Dihydroxybenzoyl-L-tyrosine-diethanolamide]
  Δ% vs. control (percentage by which the pancreatic secretion is above the basal secretion after 5 hours): 47%
  Rel. Intensity of effect over 5 hours (total pancreatic juice secretion over 5 hours as compared with control): 8.7

## COC(=O)[C@H](Cc1ccc(O)cc1)NC(=O)c1ccc(O)cc1O [2,4-Dihydroxybenzoyl-L-tyrosine-methyl ester]
  Δ% vs. control (percentage by which the pancreatic secretion is above the basal secretion after 5 hours): 70%
  Rel. Intensity of effect over 5 hours (total pancreatic juice secretion over 5 hours as compared with control): 7.8

## CCCCNC(=O)[C@H](Cc1ccc(O)cc1)NC(=O)c1ccc(O)cc1O [2,4-Dihydroxybenzoyl-L-tyrosine-n-butylamide]
  Δ% vs. control (percentage by which the pancreatic secretion is above the basal secretion after 5 hours): 87%
  Rel. Intensity of effect over 5 hours (total pancreatic juice secretion over 5 hours as compared with control): 8.7

## O=C(N[C@@H](Cc1ccc(O)cc1)C(=O)O)c1ccc(O)cc1O [2,4-Dihydroxybenzoyl-L-tyrosine]
  Δ% vs. control (percentage by which the pancreatic secretion is above the basal secretion after 5 hours): 84%

## O=C(c1cc(Cl)ccc1O)N(CCO)CCO [2-Hydroxy-5-chloro-benzoic acid-diethanolamide]
  Δ% vs. control (percentage by which the pancreatic secretion is above the basal secretion after 5 hours): 77%
  Rel. Intensity of effect over 5 hours (total pancreatic juice secretion over 5 hours as compared with control): 7.3

## NC(=O)c1ccccc1O [2-Hydroxy-benzoic acid amide]
  Δ% vs. control (percentage by which the pancreatic secretion is above the basal secretion after 5 hours): 51%
  Rel. Intensity of effect over 5 hours (total pancreatic juice secretion over 5 hours as compared with control): 8.0

## O=C(O)c1ccccc1O [2-Hydroxy-benzoic acid]
  Δ% vs. control (percentage by which the pancreatic secretion is above the basal secretion after 5 hours): 6%
  Rel. Intensity of effect over 5 hours (total pancreatic juice secretion over 5 hours as compared with control): 4.5

## O=C(c1ccccc1)c1ccccc1O [2-Hydroxy-benzophenone]
  Δ% vs. control (percentage by which the pancreatic secretion is above the basal secretion after 5 hours): 74%
  Rel. Intensity of effect over 5 hours (total pancreatic juice secretion over 5 hours as compared with control): 7.2

## O=C(O)c1cc(O)nc2ccccc12 [2-Hydroxy-quinoline-4-carboxylic acid]
  Δ% vs. control (percentage by which the pancreatic secretion is above the basal secretion after 5 hours): 5%
  Rel. Intensity of effect over 5 hours (total pancreatic juice secretion over 5 hours as compared with control): 5.0

## O=C(CO)c1ccccc1 [2-Hydroxyacetophenone]
  Δ% vs. control (percentage by which the pancreatic secretion is above the basal secretion after 5 hours): 38%
  Rel. Intensity of effect over 5 hours (total pancreatic juice secretion over 5 hours as compared with control): 7.6

## O=C(O)c1cc(O)c(O)c(O)c1 [3,4,5-Trihydroxybenzoic acid]
  Δ% vs. control (percentage by which the pancreatic secretion is above the basal secretion after 5 hours): 28%
  Rel. Intensity of effect over 5 hours (total pancreatic juice secretion over 5 hours as compared with control): 5.0

## NC(=O)c1cc(O)cc(O)c1 [3,5-Dihydroxybenzoic acid amide]
  Δ% vs. control (percentage by which the pancreatic secretion is above the basal secretion after 5 hours): 34%
  Rel. Intensity of effect over 5 hours (total pancreatic juice secretion over 5 hours as compared with control): 6.2

## O=C(Nc1cccc(O)c1)c1cc(O)cc(O)c1 [3,5-Dihydroxybenzoic acid-3-hydroxy-anilide]
  Δ% vs. control (percentage by which the pancreatic secretion is above the basal secretion after 5 hours): 49%
  Rel. Intensity of effect over 5 hours (total pancreatic juice secretion over 5 hours as compared with control): 6.2

## O=C(O)c1cc(O)cc(O)c1 [3,5-Dihydroxybenzoic acid]
  Δ% vs. control (percentage by which the pancreatic secretion is above the basal secretion after 5 hours): 25%
  Rel. Intensity of effect over 5 hours (total pancreatic juice secretion over 5 hours as compared with control): 6.6

## O=C(NC(Cc1ccc(O)cc1)C(=O)N(CCO)CCO)c1cc(O)cc(O)c1 [3,5-Dihydroxybenzoyl-L-tyrosine-diethanolamide]
  Δ% vs. control (percentage by which the pancreatic secretion is above the basal secretion after 5 hours): 76%
  Rel. Intensity of effect over 5 hours (total pancreatic juice secretion over 5 hours as compared with control): 7.6

## NS(=O)(=O)c1cccc(NC(=O)c2ccccc2O)c1 [3-(2-Hydroxybenzoylamino)-benzene-sulfonamide]
  Δ% vs. control (percentage by which the pancreatic secretion is above the basal secretion after 5 hours): 81%
  Rel. Intensity of effect over 5 hours (total pancreatic juice secretion over 5 hours as compared with control): 8.1

## CC(=O)c1cccc(O)c1 [3-Hydroxy-acetophene]
  Δ% vs. control (percentage by which the pancreatic secretion is above the basal secretion after 5 hours): 54%
  Rel. Intensity of effect over 5 hours (total pancreatic juice secretion over 5 hours as compared with control): 9.0

## O=C(c1ccccc1)c1cccc(O)c1 [3-Hydroxy-benzophenone]
  Δ% vs. control (percentage by which the pancreatic secretion is above the basal secretion after 5 hours): 79%
  Rel. Intensity of effect over 5 hours (total pancreatic juice secretion over 5 hours as compared with control): 8.0

## O=C(O)c1cccc(O)c1 [3-Hydroxybenzoic acid]
  Δ% vs. control (percentage by which the pancreatic secretion is above the basal secretion after 5 hours): 47%
  Rel. Intensity of effect over 5 hours (total pancreatic juice secretion over 5 hours as compared with control): 4.0

## O=S(=O)(c1ccc(O)cc1)c1ccc(O)cc1 [4,4'-Dihydroxy-diphenyl sulfone]
  Δ% vs. control (percentage by which the pancreatic secretion is above the basal secretion after 5 hours): 74%
  Rel. Intensity of effect over 5 hours (total pancreatic juice secretion over 5 hours as compared with control): 6.2

## COC(=O)c1ccc(O)cc1 [4-Hydroxy-benzoic acid-methyl-ester]
  Δ% vs. control (percentage by which the pancreatic secretion is above the basal secretion after 5 hours): 15%
  Rel. Intensity of effect over 5 hours (total pancreatic juice secretion over 5 hours as compared with control): 5.3

## OCc1ccc(O)cc1 [4-Hydroxy-benzyl alcohol]
  Δ% vs. control (percentage by which the pancreatic secretion is above the basal secretion after 5 hours): 12%
  Rel. Intensity of effect over 5 hours (total pancreatic juice secretion over 5 hours as compared with control): 1.3

## CC(=O)c1ccc(O)cc1 [4-Hydroxyacetophenone]
  Δ% vs. control (percentage by which the pancreatic secretion is above the basal secretion after 5 hours): 43%
  Rel. Intensity of effect over 5 hours (total pancreatic juice secretion over 5 hours as compared with control): 8.1

## O=S(=O)([O-])c1ccc(O)cc1.[Na+] [4-Hydroxybenzene-sulfonic acid-Na]
  Δ% vs. control (percentage by which the pancreatic secretion is above the basal secretion after 5 hours): 18%
  Rel. Intensity of effect over 5 hours (total pancreatic juice secretion over 5 hours as compared with control): 2.7

## O=C(O)c1ccc(O)cc1 [4-Hydroxybenzoic acid]
  Δ% vs. control (percentage by which the pancreatic secretion is above the basal secretion after 5 hours): 38%
  Rel. Intensity of effect over 5 hours (total pancreatic juice secretion over 5 hours as compared with control): 3.8

## O=C(c1ccccc1)c1ccc(O)cc1 [4-Hydroxybenzophenone]
  Δ% vs. control (percentage by which the pancreatic secretion is above the basal secretion after 5 hours): 70%
  Rel. Intensity of effect over 5 hours (total pancreatic juice secretion over 5 hours as compared with control): 6.7

## Oc1cccc2cccnc12 [8-Hydroxyquinoline]
  Δ% vs. control (percentage by which the pancreatic secretion is above the basal secretion after 5 hours): 37%
  Rel. Intensity of effect over 5 hours (total pancreatic juice secretion over 5 hours as compared with control): 4.7

## O=C(N[C@@H](Cc1ccc(O)cc1)C(=O)O)OCc1ccccc1 [Benzyloxycarbonyl-L-tyrosine]
  Δ% vs. control (percentage by which the pancreatic secretion is above the basal secretion after 5 hours): 7%
  Rel. Intensity of effect over 5 hours (total pancreatic juice secretion over 5 hours as compared with control): 5.9

## O=C(N[C@@H](Cc1ccc(O)cc1)C(=O)N[C@@H](Cc1ccc(O)cc1)C(=O)O)OCc1ccccc1 [Benzyloxycarbonyl-L-tyrosyl-L-tyrosine] (Cbz-Tyr-Tyr-OH)
  Δ% vs. control (percentage by which the pancreatic secretion is above the basal secretion after 5 hours): 62%
  Rel. Intensity of effect over 5 hours (total pancreatic juice secretion over 5 hours as compared with control): 7.5
